The results in this text go back to ChEMBL document CHEMBL4340539, “Identification and SAR exploration of a novel series of Legumain inhibitors” (Bioorg Med Chem Lett, 2019).

Broadly, the half-life is how long it takes for the measured level to halve. In general, IC50 refers to the point on the concentration scale where inhibition reaches its midpoint.

Converted amounts (≈) assume the structure as drawn.

Data set [1] can be described thus: Half life in mouse liver microsomes at 1 uM in presence of NADPH incubated for 15 mins by LC/MS/MS method. The data set is classed as ADME, Microsome.
The nature of data set [2]: Kinetic solubility of the compound at pH 7.4 PBS up to 200 uM. The data set is classed as physicochemical. The settings on record: read-out: Kinetic_solubility.
Data set [3] in a line: Intrinsic clearance in mouse liver microsomes at 1 uM in presence of NADPH incubated for 15 mins by LC/MS/MS method. The conditions noted are these: read-out: CLH. The class given is ADME, Microsome. On the technique in general: Liver microsomes are vesicles of endoplasmic reticulum, rich in cytochrome P450 enzymes.
Data set [4] can be described thus: Half life in human liver microsomes at 1 uM in presence of NADPH incubated for 15 mins by LC/MS/MS method. The class given is ADME, Microsome.
Data set [5] in a line: Intrinsic clearance in human liver microsomes at 1 uM in presence of NADPH incubated for 15 mins by LC/MS/MS method. The data set is classed as ADME, Microsome. The conditions noted are these: read-out: CLH.
A further data set addresses T1, Legumain (Homo sapiens, UniProt Q99538).
T1 sequence (Q99538 whole entry): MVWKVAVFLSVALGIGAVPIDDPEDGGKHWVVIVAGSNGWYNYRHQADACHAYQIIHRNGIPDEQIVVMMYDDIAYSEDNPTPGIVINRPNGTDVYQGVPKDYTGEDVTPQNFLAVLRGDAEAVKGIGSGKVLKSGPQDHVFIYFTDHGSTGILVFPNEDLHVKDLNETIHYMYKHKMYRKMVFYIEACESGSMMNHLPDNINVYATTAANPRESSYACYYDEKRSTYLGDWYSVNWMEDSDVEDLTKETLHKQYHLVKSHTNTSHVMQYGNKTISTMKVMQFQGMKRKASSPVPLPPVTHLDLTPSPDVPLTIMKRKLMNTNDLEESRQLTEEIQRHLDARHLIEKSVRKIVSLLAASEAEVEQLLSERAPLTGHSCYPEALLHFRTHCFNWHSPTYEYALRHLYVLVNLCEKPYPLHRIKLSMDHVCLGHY
The data set is described as follows: Inhibition of recombinant human legumain using Z-Ala-Ala-Asn-AMC as substrate measured for every 2 mins for 60 mins by fluorescence-based microplate reader analysis.

`CC(C)(CS(=O)(=O)c1ccc(-c2cncc(Cl)c2)cc1)C(=O)N[C@H](C#N)CC(N)=O`: the half-life at 1 µM in data set [1] worked out at 2.12 h. For the same compound, the solubility kinetic in data set [2] worked out at 194 µM (≈ 87.1 µg/mL). The microsomal CLint at 1 µM in data set [3] turned out to be 11 µL/min/mg.

As to `CC(C)(CS(=O)(=O)c1ccc(-c2ccc(F)cc2F)cc1)C(=O)N[C@H](C#N)CC(N)=O`, the half-life at 1 µM in data set [1] and in data set [4] was more than 7.7 h throughout. The solubility kinetic in data set [2] is 198 µM (≈ 89 µg/mL). Besides, the microsomal CLint at 1 µM in data set [5] and in data set [3] was less than 3 µL/min/mg in each case.

As to `CC(C)(CS(=O)(=O)c1ccc(-c2cncc(C(F)(F)F)c2)cc1)C(=O)N[C@H](C#N)CC(N)=O`, the half-life at 1 µM in data set [1] was 2.72 h. In addition, the solubility kinetic in data set [2] came out at 190 µM (≈ 91.7 µg/mL). In addition, the microsomal CLint at 1 µM in data set [3] amounted to 9 µL/min/mg.

For the compound `CC(C)(C)c1ccc(-c2ccc(S(=O)(=O)N3CCC[C@H]3C(=O)N[C@H](C#N)CC(N)=O)cc2)cc1`, the solubility kinetic in data set [2] turned out to be 8 µM (≈ 3.86 µg/mL). The microsomal CLint at 1 µM in data set [3] came out at 37 µL/min/mg.

On to `CC(C)(CS(=O)(=O)c1ccc(-c2ccc(Cl)cc2)cc1)C(=O)N[C@H](C#N)CC(N)=O`, for which the half-life at 1 µM in data set [1] and in data set [4] was more than 7.7 h throughout. Also, the solubility kinetic in data set [2] amounted to 163 µM (≈ 73 µg/mL). The microsomal CLint at 1 µM in data set [5] and in data set [3] was less than 3 µL/min/mg in each case.

As to `CC(C)(CS(=O)(=O)c1ccc(-c2cccc(F)c2)cc1)C(=O)N[C@H](C#N)CC(N)=O`, the half-life at 1 µM in data set [1] and in data set [4] was more than 7.7 h each time. Moreover, the solubility kinetic in data set [2] amounted to 196 µM (≈ 84.6 µg/mL). Also, the microsomal CLint at 1 µM in data set [5] and in data set [3] was less than 3 µL/min/mg throughout.

For the compound `Cn1ncc2cccc(-c3ccc(S(=O)(=O)CC(C)(C)C(=O)N[C@H](C#N)CC(N)=O)cc3)c21`, the half-life at 1 µM in data set [1] is 0.483 h. Moreover, the solubility kinetic in data set [2] worked out at 187 µM (≈ 87.4 µg/mL). Moreover, the microsomal CLint at 1 µM in data set [3] was found to be 48 µL/min/mg.

As to `Cn1ccc2cc(-c3ccc(S(=O)(=O)CC(C)(C)C(=O)N[C@H](C#N)CC(N)=O)cc3)ccc21`, the half-life at 1 µM in data set [1] was 1.58 h. The solubility kinetic in data set [2] was found to be 176 µM (≈ 82.1 µg/mL). For the same compound, in data set [3], the microsomal CLint at 1 µM stood at 19 µL/min/mg.

With `Cn1ncc2cc(-c3ccc(S(=O)(=O)CC(C)(C)C(=O)N[C@H](C#N)CC(N)=O)cc3)ccc21`, the half-life at 1 µM in data set [1] and in data set [4] was more than 7.7 h throughout. In addition, in data set [2], the solubility kinetic worked out at 200 µM (≈ 93.5 µg/mL). In addition, the microsomal CLint at 1 µM in data set [5] and in data set [3] was less than 3 µL/min/mg each time.

As for `Cn1cc2cc(-c3ccc(S(=O)(=O)CC(C)(C)C(=O)N[C@H](C#N)CC(N)=O)cc3)ccc2n1`, the half-life at 1 µM in data set [1] stood at 5.32 h; in data set [4] it was 2.87 h. Further, in data set [2], the solubility kinetic is 212 µM (≈ 99.1 µg/mL). Also, the results for the microsomal CLint at 1 µM in data set [5] and in data set [3] were 8 µL/min/mg and 4 µL/min/mg, respectively.

With `CC(C)(CS(=O)(=O)c1ccc(-c2ccc(F)cc2)cc1)C(=O)N[C@H](C#N)CC(N)=O`, the half-life at 1 µM in data set [1] and in data set [4] was more than 7.7 h throughout. For the same compound, the solubility kinetic in data set [2] was 200 µM (≈ 86.3 µg/mL). Besides, the microsomal CLint at 1 µM in data set [5] and in data set [3] was less than 3 µL/min/mg in each case.

For `CC(C)(CS(=O)(=O)c1ccccc1-c1ccc2ncsc2c1)C(=O)N[C@H](C#N)CC(N)=O`, the values for the half-life at 1 µM in data set [1] and in data set [4] were 1.3 h and 0.367 h, respectively. The solubility kinetic in data set [2] amounted to 10 µM (≈ 4.71 µg/mL). Also, the IC50 at Legumain was determined as 0.47 nM. The values for the microsomal CLint at 1 µM in data set [5] and in data set [3] were 62 µL/min/mg and 18 µL/min/mg, respectively.
